This is an account of results in US20240335431A1, “1-H-PYRROLO[2,3-c]PYRIDINE COMPOUNDS” (Acerta Pharma B.V., priority 2023, published 2024).

The IC50 is the concentration at which inhibition is half-maximal. The term Ki denotes a measure of affinity in units of concentration, obtained from inhibition or displacement.

Where two headings read alike, the source gives them in different places.

For one series, the system named is HEL cells. In words: Proliferation assay, HEL control cell line (CellTiter-Glo, 7 days). Format: cell-based, human. The procedure, abridged: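 Cells were seeded at line-specific low densities for linear growth, exposed to 3.16-fold serial compound dilutions at 0.1% DMSO, and incubated 7 days at 37 °C, 5% CO2. Viability was read by CellTiter-Glo 2.0 luminescence; IC50 came from one-site fits of % inhibition, normalized between DMSO-treated cells (100%) and a day-0 plate (0%).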
(In ATP-based viability assays light output follows the ATP content of the culture.)

The target in another series is muscarinic M2 receptor (Homo sapiens (Human), UniProt P08172). Nature of the series: Muscarinic M2 receptor binding assay (assay 1). The note with it: [3H]AF-DX 384 2 nM, Cheng Prusoff. On the procedure:
Cell membrane homogenates (60 μg protein) were incubated for 60 minutes at 22° C. with 2 nM [3H]AF-DX 384 in the absence or presence of the test compound in a buffer containing 50 mM Tris-HCl (pH 7.4), 120 mM NaCl, 5 mM KCl, 5 mM MgCl2, and 1 mM EDTA. Nonspecific binding was determined in the presence of 1 μM atropine. Following incubation, the samples were filtered rapidly under vacuum through glass fiber filters (GF/B, Packard) presoaked with 0.3% PEI and rinsed several times with ice-cold 50 mM Tris-HCl using a 96-sample cell harvester (Unifilter, Packard). The filters were dried then counted for radioactivity in a scintillation counter (Topcount, Packard) using a scintillation cocktail (Microscint 0, Packard). The results were expressed as a percent inhibition of the control radioligand specific binding, from which the Ki was calculated. Data were analyzed using software developed at Cerep (Hill software) and validated by comparison with data generated by the commercial software SigmaPlot®4.0 for Windows® (© 1997 by SPSS Inc.). The inhibition constant, Ki, was calculated using the Cheng Prusoff equation:
where L=concentration of ligand in the assay, and Kd=affinity of the ligand for the receptor. The standard reference compound was methoctramine, which was tested in each experiment at several concentrations to obtain a competition curve from which its IC50 was calculated.

Series [1] can be described thus: Human hepatocyte intrinsic clearance assay. The note with it: human hepatocytes. In kind it is in vitro ADME. The method, then:
Human hepatocytes (LiverPool™ 10-Donor Human hepatocytes (Mixed Gender, PEG-free, Product No. S01205, 5 million cells per vial) were obtained from BioreclamationIVT. DMSO was sourced from Solarbio S&T Co Ltd. Leibovitz's L-15 Medium, Williams' Medium E, GlutaMAX™-1 (100×), HEPES, DPBS (10×) and Human Recombinant Insulin Solution were purchased from Gibco. Isotonic Percoll Solution was purchased from GE Healthcare. Fetal Bovine Serum (FBS) was purchased from Corning.
10 mM dexamethasone stock solution was prepared by dissolving 3.9 mg dexamethasone in 1 mL of DMSO. An Isotonic Percoll Solution was prepared by dilution of Percoll with DPBS (10×). 15 mL of Isotonic Percoll Solution (90% Percoll/10% DPBS) was added to 31.25 mL William's E medium containing 500 mL of GlutaMAX™-1 (100×), 750 mL of 1M HEPES, 2.5 mL of 5% FBS, 50 mL of 4 mg/mL Human Recombinant Insulin Solution and 5 mL of the 10 mM dexamethasone stock.
2 mL of 10 mM DMSO stock solutions of test compound were added to 198 mL acetonitrile to produce 100 mmol/L concentration.
The human hepatocyte vial was thawed at 37° C. in a waterbath. Once thawed, contents were poured into a 50 mL conical tube and centrifuged at 100 g for 10 minutes. The thawing medium was poured out and 4 mL L-15 medium was added. The tube was gently shaken to resuspend the hepatocytes and cells were counted with an appropriate cell counter. 247.5 mL of the hepatocyte suspension was transferred into each well of the plate and pre-warmed at 600 rpm and 50° C. to enable the temperature to rise to 37° C.
2.5 mL of the […] test compound solution was added to initiate the reaction (final concentration […]) and incubated at 37° C. with shaking at 900 rpm. At 0.5, 5, 15, 30, 45, 60, 80, 100 and 120 minutes, 20 mL was taken into a quenching solution of acetonitrile containing internal standards. The mix was vortexed at 800 rpm for 2 minutes followed by centrifugation for 20 minutes at 4000 rpm at 4° C. 40 mL of supernatant was transferred into a 96 well analysis plate containing 160 mL of water in each well. The analysis plate was shaken at 100 rpm for 2 minutes prior to analysis by LC-MS/MS.
Peak areas were determined from extracted ion chromatograms. Percent parent remaining was calculated from peak area of test compound. The slope value, k, was determined by linear regression of the natural logarithm of percent parent remaining versus incubation time.
The in vitro intrinsic clearance (in vitro CLint in mL/min/10^6 cells) was determined from the slope value using the following equation: […]
where V is the incubation volume (0.25 mL) and N is the number of hepatocytes per well (0.25×10^6 cells).

muscarinic M2 receptor, sequence (P08172 whole entry): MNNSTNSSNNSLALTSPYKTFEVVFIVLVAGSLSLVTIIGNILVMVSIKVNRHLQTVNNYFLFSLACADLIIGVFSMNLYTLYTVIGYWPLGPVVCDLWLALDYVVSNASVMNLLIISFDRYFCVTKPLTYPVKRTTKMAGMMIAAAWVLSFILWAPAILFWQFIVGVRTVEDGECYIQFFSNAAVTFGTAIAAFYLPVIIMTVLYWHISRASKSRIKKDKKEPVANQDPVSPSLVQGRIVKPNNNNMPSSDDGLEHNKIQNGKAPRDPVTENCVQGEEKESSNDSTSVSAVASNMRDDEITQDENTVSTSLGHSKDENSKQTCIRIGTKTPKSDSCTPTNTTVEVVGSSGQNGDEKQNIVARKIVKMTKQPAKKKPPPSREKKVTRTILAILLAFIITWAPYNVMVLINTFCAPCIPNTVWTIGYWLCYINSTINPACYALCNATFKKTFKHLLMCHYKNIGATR

For `CCN(C(=O)c1cc(F)ccc1-n1cc(C(=O)C2CCN(C(=O)[C@H]3NC[C@@H]4C[C@@H]43)CC2)c2ccncc21)C(C)C` [Example 28, 2-(3-(1-((1S,2S,5R)-3-Azabicyclo[3.1.0]hexane-2-carbonyl)piperidine-4-carbonyl)-1H-pyrrolo[2,3-c]pyridin-1-yl)-N-ethyl-5-fluoro-N-isopropylbenzamide], in the series with HEL cells (Homo sapiens, HEL, 168 h), the IC50 was greater than 10 µM. This molecule also showed a Ki on muscarinic M2 receptor of 0.4 µM. Moreover, the “HH CLint” value in series [1] is listed as less than 1.0 μl/min/1E6.
Consider `CC(C)N(C(=O)c1cc(F)ccc1-n1cc(C(=O)C2CCN(C(=O)[C@H]3NC[C@@H]4C[C@@H]43)CC2)c2ccncc21)C(C)C` [Example 19, 2-(3-(1-((1S,2S,5R)-3-Azabicyclo[3.1.0]hexane-2-carbonyl)piperidine-4-carbonyl)-1H-pyrrolo[2,3-c]pyridin-1-yl)-5-fluoro-N,N-diisopropylbenzamide], for which the IC50 in the series on HEL cells (Homo sapiens, HEL, 168 h) is greater than 10 µM. Moreover, the affinity on muscarinic M2 receptor, expressed as Ki, was 1.4 µM. Also, in series [1], the “HH CLint” value is 3.6 μl/min/1E6.
For `O=C(c1cn(-c2ccc(F)cc2-c2cncnc2C2CC2)c2cnccc12)C1CCN(C(=O)[C@H]2N[C@@H]3CC[C@H]2C3)CC1` [Example 40, (1-((1R,3S,4S)-2-Azabicyclo[2.2.1]heptane-3-carbonyl)piperidin-4-yl)(1-(2-(4-cyclopropylpyrimidin-5-yl)-4-fluorophenyl)-1H-pyrrolo[2,3-c]pyridin-3-yl)methanone], in the series on HEL cells (Homo sapiens, HEL, 168 h), the IC50 was greater than 10 µM. The “HH CLint” value in series [1] was less than 1.0 μl/min/1E6.
In the series with HEL cells (Homo sapiens, HEL, 168 h), `CC(C)n1nccc1-c1cc(F)ccc1-n1cc(C(=O)C2CCN(C(=O)[C@H]3N[C@@H]4CC[C@H]3C4)CC2)c2ccncc21` [Example 36, (1-((1R,3S,4S)-2-Azabicyclo[2.2.1]heptane-3-carbonyl)piperidin-4-yl)(1-(4-fluoro-2-(1-isopropyl-1H-pyrazol-5-yl)phenyl)-1H-pyrrolo[2,3-c]pyridin-3-yl)methanone] showed an IC50 greater than 10 µM. Affinity on muscarinic M2 receptor was put at a Ki of 1.2 µM. The “HH CLint” value in series [1] was less than 1.0 μl/min/1E6.
As for `C=C1C[C@@H]2CC[C@H]1[C@@H](C(=O)N1CCC(C(=O)c3cn(-c4ccc(F)cc4C(=O)N(C(C)C)C(C)C)c4cnccc34)CC1)N2` [Example 18, 5-Fluoro-N,N-diisopropyl-2-(3-(1-((1S,3S,4R)-5-methylene-2-azabicyclo[2.2.2]-octane-3-carbonyl)piperidine-4-carbonyl)-1H-pyrrolo[2,3-c]pyridin-1-yl)benzamide], the IC50 in the series with HEL cells (Homo sapiens, HEL, 168 h) was greater than 10 µM. Moreover, at muscarinic M2 receptor, affinity was put at a Ki of 1 µM. Further, the “HH CLint” value in series [1] is reported as 1.6 μl/min/1E6.
`CC(C)N(C(=O)c1cc(F)ccc1-n1cc(C(=O)C2CCN(C(=O)[C@H]3NC[C@@H]4CCC[C@@H]43)CC2)c2ccncc21)C(C)C` [Example 21, 5-Fluoro-N,N-diisopropyl-2-(3-(1-((1S,3αR,6αS)-octahydrocyclopenta[c]pyrrole-1-carbonyl)piperidine-4-carbonyl)-1H-pyrrolo[2,3-c]pyridin-1-yl)benzamide] returned an IC50 in the series with HEL cells (Homo sapiens, HEL, 168 h) greater than 10 µM. At muscarinic M2 receptor, this molecule gave an inhibition constant Ki of 0.5 µM. The “HH CLint” value in series [1] came out at 2.0 μl/min/1E6.
Consider `COCCN(C)CCC[C@H](C(C)C)N1CCC(C(=O)c2cn(-c3ccc(F)cc3C(=O)N(C(C)C)C(C)C)c3cnccc23)CC1` (racemic) [Example 23, rac-(R)-5-Fluoro-N,N-diisopropyl-2-(3-(1-(6-((2-methoxyethyl)(methyl)amino)-2-methylhexan-3-yl)piperidine-4-carbonyl)-1H-pyrrolo[2,3-c]pyridin-1-yl)benzamide], for which the half-maximal inhibitory concentration (IC50) in the series on HEL cells (Homo sapiens, HEL, 168 h) was greater than 10 µM. Further, on muscarinic M2 receptor, the inhibitory constant (Ki) came to 0.1 µM. Besides, in series [1], the “HH CLint” value worked out at 3.8 μl/min/1E6.
In the series on HEL cells, `CCN(C(=O)c1cc(F)ccc1-n1c(C)c(C(=O)C2CCN(C(=O)[C@H]3NC[C@@H]4C[C@@H]43)CC2)c2ccncc21)C(C)C` (single isomer, unassigned) [Example 48-1] registered an IC50 greater than 10 µM. For the same molecule, the “HH CLint” value in series [1] was less than 1.0 μl/min/1E6.
In the case of `CC(C)c1ccncc1-c1cc(F)ccc1-n1cc(C(=O)C2CCN(C(=O)[C@H]3N[C@@H]4CC[C@H]3C4)CC2)c2ccncc21` [Example 41, (1-((1R,3S,4S)-2-Azabicyclo[2.2.1]heptane-3-carbonyl)piperidin-4-yl)(1-(4-fluoro-2-(4-isopropylpyridin-3-yl)phenyl)-1H-pyrrolo[2,3-c]pyridin-3-yl)methanone], the IC50 with HEL cells (Homo sapiens, HEL, 168 h) was greater than 10 µM. For the same molecule, the Ki on muscarinic M2 receptor is 0.1 µM. In addition, in series [1], the “HH CLint” value is reported as 1.7 μl/min/1E6.
`CC(C)c1ncsc1-c1cc(F)ccc1-n1cc(C(=O)C2CN(C(=O)[C@H]3N[C@@H]4CC[C@H]3C4)C2)c2ccncc21.O=CO` [Example 12, (1-((1R,3S,4S)-2-Azabicyclo[2.2.1]heptane-3-carbonyl)azetidin-3-yl)(1-(4-fluoro-2-(4-isopropylthiazol-5-yl)phenyl)-1H-pyrrolo[2,3-c]pyridin-3-yl)methanone 1·formic acid] gave an IC50 in the series on HEL cells (Homo sapiens, HEL, 168 h) greater than 10 µM. This molecule also gave a Ki on muscarinic M2 receptor of 6.9 µM. Also, the “HH CLint” value in series [1] was 3.9 μl/min/1E6.
Take `CCN(C(=O)c1cc(F)ccc1-n1c(C)c(C(=O)[C@@H]2CCN(C(=O)[C@@H]3CC[C@H](C)N3)[C@@H](C)C2)c2ccncc21)C(C)C` (stereo in doubt) [Example 63, N-Ethyl-5-fluoro-N-isopropyl-2-(2-methyl-3-((2S,4RS)-2-methyl-1-((2S,5S)-5-methylpyrrolidine-2-carbonyl)piperidine-4-carbonyl)-1H-pyrrolo[2,3-c]pyridine-1-yl)benzamide]: the IC50 in the series with HEL cells (Homo sapiens, HEL, 168 h) is greater than 10 µM.
`C[C@@H]1COC[C@@H](C)N1C(=O)c1cc(F)ccc1-n1cc(C(=O)C2CCN(C(=O)[C@H]3N[C@@H]4CC[C@H]3C4)CC2)c2ccncc21` [Example 34, (1-((1R,3S,4S)-2-Azabicyclo[2.2.1]heptane-3-carbonyl)piperidin-4-yl)(1-(2-((3R,5R)-3,5-dimethylmorpholine-4-carbonyl)-4-fluorophenyl)-1H-pyrrolo[2,3-c]pyridin-3-yl)methanone] yielded an IC50 in the series on HEL cells (Homo sapiens, HEL, 168 h) greater than 10 µM.
Regarding `CC(C)N(C(=O)c1cc(F)ccc1-n1cc(C(=O)C2CN(C(=O)[C@H]3NC4CCC3CC4)C2)c2ccncc21)C(C)C` [Example 6, (S)-2-(3-(1-(2-Azabicyclo[2.2.2]octane-3-carbonyl)azetidine-3-carbonyl)-1H-pyrrolo[2,3-c]pyridin-1-yl)-5-fluoro-N,N-diisopropylbenzamide], the IC50 in the series on HEL cells (Homo sapiens, HEL, 168 h) is greater than 10 µM. Also, at muscarinic M2 receptor, the affinity corresponds to a Ki of 2.3 µM.
`Cc1c(C(=O)[C@@H]2CCN(C(=O)[C@@H]3CC[C@H](C)N3)[C@@H](C)C2)c2ccncc2n1-c1ccc(F)cc1C(=O)N(C(C)C)C(C)C` (stereo in doubt) [Example 62, 5-Fluoro-N,N-diisopropyl-2-(2-methyl-3-((2S,4RS)-2-methyl-1-((2S,5S)-5-methylpyrrolidine-2-carbonyl)piperidine-4-carbonyl)-1H-pyrrolo[2,3-c]pyridin-1-yl)benzamide] came in with an IC50 in the series with HEL cells (Homo sapiens, HEL, 168 h) greater than 10 µM.
With `Cc1c(C(=O)C2CCN(C(=O)[C@H]3NC[C@@H]4C[C@@H]43)CC2)c2ccncc2n1-c1ccc(F)cc1C(=O)N(CC(F)(F)F)C(C)C` (single isomer, unassigned) [Example 51-1], in the series on HEL cells (Homo sapiens, HEL, 168 h), the IC50 was greater than 10 µM.
